Among the data in patent publication US9884063B2, “Amido-substituted azole compounds” (Bayer Pharma Aktiengesellschaft, priority 2014, dated 2018) are IC50 values, retold here.

For this test, the system named is wildtype Wnt signaling cascade. The test is described as follows: HEK293 TOP Assay (Super TopFlash luciferase reporter, Wnt-3a stimulated). The following applies: Homo sapiens, HEK293, 16 h, HEK293 TOP reporter cell line, Wnt-3a at EC50, 16 hours incubation, compound dilution series 50 μM to 15 nM. The format is cell-based. Here is the method: In order to discover and characterize small molecules which inhibit the wildtype Wnt pathway, a cellular reporter assay was employed. The corresponding assay cell was generated by transfection of the mammalian cell line HEK293 (ATCC, #CRL-1573) with the Super TopFlash vector (Morin, Science 275, 1997, 1787-1790; Molenaar et al., Cell 86 (3), 1996, 391-399). The HEK293 cell line is cultivated at 37° C. and 5% CO2 in DMEM (Life Technologies, #41965-039), supplemented with 2 mM glutamine, 20 mM HEPES, 1.4 mM pyruvate, 0.15% Na-bicarbonate and 10% foetal bovine serum (GIBCO, #10270). Stable transfectants were generated by selection with 300 μg/ml Hygromycin.
In preparation of the assay, the two cell lines were plated 24 hrs before beginning the test at 10000 cells per well in a 384 micro titre plate (MTP) in 30 μl growth medium. […] The recombinant human Wnt-3a was thereby applied between 2500 and 5 ng/ml in two-fold dilution steps.
Selective inhibitory activity for small molecules on the wildtype Wnt pathway was determined after parallel incubation of both (TOP and FOP) HEK293 reporter cell lines with a compound dilution series from 50 μM to 15 nM in steps of 3.16-fold dilutions in CAFTY buffer (130 mM sodium chloride, 5 mM potassium chloride, 20 mM HEPES, 1 mM magnesium chloride, 5 mM sodium bicarbonate, pH 7.4) containing 2 mM Ca^2+ and 0.01% BSA.
The compounds were thereby serially prediluted in 100% DMSO and thereafter 50 fold into the CAFTY compound dilution buffer (described above).
In general terms: In a reporter assay the amount or activity of a reporter protein is the signal.

In the case of `O=C(Nc1ccc(NC(=O)c2nc[nH]c2C(=O)NCC(F)(F)F)cc1OC(F)(F)F)c1ccc(F)cc1Cl` [Example 292, N^4-{4-[(2-chloro-4-fluorobenzoyl)amino]-3-(trifluoromethoxy)phenyl}-N^5-(2,2,2-trifluoroethyl)-1H-imidazole-4,5-dicarboxamide], it took 11 µM to reach half-maximal inhibition (IC50).

Take `CNC(=O)c1nc[nH]c1C(=O)Nc1ccc(NC(=O)c2ccc(Cl)cc2)cc1` [Example 306, N^5-{4-[(4-chlorobenzoyl)amino]phenyl}-N^4-methyl-1H-imidazole-4,5-dicarboxamide]: the half-inhibitory concentration (IC50) – broadly, the midpoint of a concentration-inhibition curve – was found to be 3.15 µM.

In turn, `Cc1cc(NC(=O)c2[nH]cnc2C(=O)NCCN(C)C)ccc1NC(=O)c1ccccc1Cl` [Example 88, N^5-{4-[(2-chlorobenzoyl)amino]-3-methylphenyl}-N^4-[2-(dimethylamino)ethyl]-1H-imidazole-4,5-dicarboxamide] displayed an IC50 of 2.4 µM.

Regarding `CNC(=O)c1[nH]cnc1C(=O)Nc1ccc(NC(=O)c2ccc(F)cc2Cl)c(OC(F)(F)F)c1` [Example 291, N^4-{4-[(2-chloro-4-fluorobenzoyl)amino]-3-(trifluoromethoxy)phenyl}-N^5-methyl-1H-imidazole-4,5-dicarboxamide], inhibition was half-maximal at 14.3 µM (IC50).

Compound `CNC(=O)c1nc[nH]c1C(=O)Nc1ccc(NC(=O)c2cccc(N(C)C)c2)cc1` [Example 317, N^5-(4-{[3-(dimethylamino)benzoyl]amino}phenyl)-N^4-methyl-1H-imidazole-4,5-dicarboxamide] had an IC50 of 50 µM.

`O=C(Nc1ccc(NC(=O)c2[nH]cnc2C(=O)NCCN2CCNC2=O)cc1)c1ccc(F)cc1Cl` [Example 399, N^5-{4-[(2-chloro-4-fluorobenzoyl)amino]phenyl}-N^4-[2-(2-oxoimidazolidin-1-yl)ethyl]-1H-imidazole-4,5-dicarboxamide] registered an IC50 of 1.2 µM.

Turning to `CN1CCN(CCCNC(=O)c2[nH]cnc2C(=O)Nc2ccc(NC(=O)c3ccccc3Cl)cc2)CC1` [Example 192, N^4-{4-[(2-chlorobenzoyl)amino]phenyl}-N^5-[3-(4-methylpiperazin-1-yl)propyl]-1H-imidazole-4,5-dicarboxamide], the IC50 was 0.46 µM.

As to `CNC(=O)c1nc[nH]c1C(=O)Nc1ccc(NC(=O)c2ccc(F)c(C)c2)cc1` [Example 373, N^5-{4-[(4-fluoro-3-methylbenzoyl)amino]phenyl}-N^4-methyl-1H-imidazole-4,5-dicarboxamide], the IC50 turned out to be 4.2 µM.

With `CNC(=O)c1nc[nH]c1C(=O)Nc1ccc(NC(=O)c2cccc(C(F)(F)F)c2Cl)cc1` [Example 358, N^5-(4-{[2-chloro-3-(trifluoromethyl)benzoyl]amino}phenyl)-N^4-methyl-1H-imidazole-4,5-dicarboxamide], the IC50 came out at 4.1 µM.

Turning to `O=C(Nc1ccc(NC(=O)c2nc[nH]c2C(=O)N2CCC2)cc1)c1ccc(F)cc1` [Example 143, 5-(azetidin-1-ylcarbonyl)-N-{4-[(4-fluorobenzoyl)amino]phenyl}-1H-imidazole-4-carboxamide], the IC50 turned out to be 29.5 µM.

The compound `CNC(=O)c1nc[nH]c1C(=O)Nc1ccc(NC(=O)c2ccc(C)cn2)cc1` [Example 357, N^4-methyl-N^5-(4-{[(5-methylpyridin-2-yl)carbonyl]amino}phenyl)-1H-imidazole-4,5-dicarboxamide] displayed an IC50 of 11.2 µM.

As for `CNC(=O)c1nc[nH]c1C(=O)Nc1ccc(NC(=O)c2cccc(C#N)c2)cc1` [Example 311, N^5-{4-[(3-cyanobenzoyl)amino]phenyl}-N^4-methyl-1H-imidazole-4,5-dicarboxamide], half-maximal inhibition (IC50) required 50 µM.

Regarding `CNC(=O)c1nc[nH]c1C(=O)Nc1ccc(NC(=O)c2cccc(F)c2C)cc1` [Example 324, N^5-{4-[(3-fluoro-2-methylbenzoyl)amino]phenyl}-N^4-methyl-1H-imidazole-4,5-dicarboxamide], inhibition was half-maximal at 3.2 µM (IC50).

The compound `CNC(=O)c1nc[nH]c1C(=O)Nc1ccc(NC(=O)c2ccc(F)cc2)c(OC)c1` [Example 103, N^5-{4-[(4-fluorobenzoyl)amino]-3-methoxyphenyl}-N^4-methyl-1H-imidazole-4,5-dicarboxamide] gave an IC50 of 38 µM.

Consider `CNC(=O)c1nc[nH]c1C(=O)Nc1ccc(NC(=O)c2ccc(OC)c(OC)c2Cl)cc1` [Example 348, N^5-{4-[(2-chloro-3,4-dimethoxybenzoyl)amino]phenyl}-N^4-methyl-1H-imidazole-4,5-dicarboxamide], for which the IC50 stood at 7.05 µM.

For `CNC(=O)c1nc[nH]c1C(=O)Nc1ccc(NC(=O)c2cncs2)cc1` [Example 345, N^4-methyl-N^5-{4-[(1,3-thiazol-5-ylcarbonyl)amino]phenyl}-1H-imidazole-4,5-dicarboxamide], the IC50 is 50 µM.

`O=C(Nc1ccc(NC(=O)c2[nH]cnc2C(=O)NCCN2CCCCC2)cn1)c1ccc(F)cc1` [Example 117, N^5-{6-[(4-fluorobenzoyl)amino]pyridin-3-yl}-N^4-[2-(piperidin-1-yl)ethyl]-1H-imidazole-4,5-dicarboxamide]: the half-inhibitory concentration (IC50) stood at 40 µM.

The compound `CNC(=O)c1nc[nH]c1C(=O)Nc1ccc(NC(=O)c2ccc(F)cc2O)cc1` [Example 245, N^5-{4-[(4-fluoro-2-hydroxybenzoyl)amino]phenyl}-N^4-methyl-1H-imidazole-4,5-dicarboxamide] had a half-inhibitory concentration (IC50) of 50 µM.

The compound `O=C(Nc1ccc(NC(=O)c2nc[nH]c2C(=O)NCCN2CCC(O)CC2)cc1)c1ccc(F)cc1` [Example 178, N^4-{4-[(4-fluorobenzoyl)amino]phenyl}-N^5-[2-(4-hydroxypiperidin-1-yl)ethyl]-1H-imidazole-4,5-dicarboxamide] had an IC50 of 1.17 µM.

As for `CNC(=O)c1nc[nH]c1C(=O)Nc1ccc(NC(=O)c2cccc(C)c2)cc1` [Example 336, N^4-methyl-N^5-{4-[(3-methylbenzoyl)amino]phenyl}-1H-imidazole-4,5-dicarboxamide], the IC50 worked out at 11 µM.

`CNC(=O)c1nc[nH]c1C(=O)Nc1ccc(NC(=O)c2cccc(OC)c2)cc1` [Example 305, N^5-{4-[(3-methoxybenzoyl)amino]phenyl}-N^4-methyl-1H-imidazole-4,5-dicarboxamide] came in with an IC50 of 31.5 µM.

In turn, `CNC(=O)c1nc[nH]c1C(=O)Nc1ccc(NC(=O)c2ccc(Cl)c(Cl)c2)cc1` [Example 308, N^5-{4-[(3,4-dichlorobenzoyl)amino]phenyl}-N^4-methyl-1H-imidazole-4,5-dicarboxamide] registered an IC50 of 3.35 µM.

The compound `CNC(=O)c1nc[nH]c1C(=O)Nc1ccc(NC(=O)c2cc(F)cc(Cl)c2)cc1` [Example 360, N^5-{4-[(3-chloro-5-fluorobenzoyl)amino]phenyl}-N^4-methyl-1H-imidazole-4,5-dicarboxamide] had an IC50 of 15.2 µM.

Take `CNC(=O)c1nc[nH]c1C(=O)Nc1ccc(NC(=O)c2ccoc2)cc1` [Example 312, N^5-{4-[(furan-3-ylcarbonyl)amino]phenyl}-N^4-methyl-1H-imidazole-4,5-dicarboxamide]: half-maximal inhibition (IC50) was put at 50 µM.

For the compound `CNC(=O)c1nc[nH]c1C(=O)Nc1ccc(NC(=O)c2ccc(OC)cc2)cc1` [Example 304, N^5-{4-[(4-methoxybenzoyl)amino]phenyl}-N^4-methyl-1H-imidazole-4,5-dicarboxamide], the midpoint of inhibition, the IC50, lay at 11.4 µM.

Compound `CC(C)CNC(=O)c1[nH]cnc1C(=O)Nc1ccc(NC(=O)c2ccc(F)cc2)cc1` [Example 146, N^4-{4-[(4-fluorobenzoyl)amino]phenyl}-N^5-isobutyl-1H-imidazole-4,5-dicarboxamide] yielded a half-inhibitory concentration (IC50) of 5.15 µM.

The compound `CNC(=O)c1nc[nH]c1C(=O)Nc1ccc(NC(=O)c2c(F)ccc(F)c2F)cc1` [Example 323, N^4-methyl-N^5-{4-[(2,3,6-trifluorobenzoyl)amino]phenyl}-1H-imidazole-4,5-dicarboxamide] came in with a 50% inhibitory concentration (IC50) of 1.45 µM.

For `CC(CNC(=O)c1[nH]cnc1C(=O)Nc1ccc(NC(=O)c2ccc(F)cc2)cc1)N1CCN(C)CC1` (centres unmarked) [Example 205, N^4-{4-[(4-fluorobenzoyl)amino]phenyl}-N^5-[2-(4-methylpiperazin-1-yl)propyl]-1H-imidazole-4,5-dicarboxamide], 2.65 µM corresponded to half-maximal inhibition (IC50).

Compound `CNC(=O)c1nc[nH]c1C(=O)Nc1ccc(NC(=O)c2cc(C)cc(C)c2)cc1` [Example 335, N^5-{4-[(3,5-dimethylbenzoyl)amino]phenyl}-N^4-methyl-1H-imidazole-4,5-dicarboxamide] registered a half-inhibitory concentration (IC50) of 21.5 µM.

Compound `CNC(=O)c1nc[nH]c1C(=O)Nc1ccc(NC(=O)c2cc(F)cc(F)c2F)cc1` [Example 347, N^4-methyl-N^5-{4-[(2,3,5-trifluorobenzoyl)amino]phenyl}-1H-imidazole-4,5-dicarboxamide] displayed an IC50 of 34.5 µM.

`CN(C)C(=O)c1[nH]cnc1C(=O)Nc1ccc(NC(=O)c2ccc(F)cc2)cc1` [Example 144, N^4-{4-[(4-fluorobenzoyl)amino]phenyl}-N^5,N^5-dimethyl-1H-imidazole-4,5-dicarboxamide] displayed a concentration for half-maximal inhibition (IC50) of 50 µM.

Compound `O=C(Nc1ccc(NC(=O)c2nc[nH]c2C(=O)NC(CO)CO)cc1)c1ccc(F)cc1` [Example 150, N^5-(1,3-dihydroxypropan-2-yl)-N^4-{4-[(4-fluorobenzoyl)amino]phenyl}-1H-imidazole-4,5-dicarboxamide] yielded an IC50 of 50 µM.
